Data from patent publication US11839613B2, “Pyrimidine derivatives as PGE2 receptor modulators” (IDORSIA PHARMACEUTICALS LTD, priority 2017, dated 2023).

Experiments:
EP4 = EP4 (Homo sapiens (Human), UniProt P35408); test: hEP4 cAMP assay (BT549 breast cancer cells, HTRF cAMP); assay type: cell-based; conditions: antagonistic activity, PGE2 6 nM
From the text: (§1) Human tumor cell lines expressing endogenously either EP4 or EP2 are used and cAMP accumulation in cells upon PGE2 stimulation is monitored. SF295 glioblastoma cells express high endogenous EP2 and no EP4, whereas BT549 breast cancer cells, express high endogenous EP4 levels and very low EP2 levels.
(§2) As a detection method for cAMP the HTRF (homogeneous time resolved fluorescence) Cisbio kit (HTRF cAMP dynamic 2 kit 20'000 tests Cisbio Cat. #62AM4PEC) was used, which is based on a competitive immunoassay using a Cryptate-labeled anti-cAMP antibody and d2-labeled cAMP. Native cAMP produced by cells or unlabeled cAMP (for the standard curve) compete with exogenously added d2-labeled cAMP (acceptor) for binding to monoclonal anti-cAMP-Eu3+Cryptate (donor). A FRET signal (Fluorescence Resonance Energy Transfer) is obtained only if the labeled anti-cAMP antibody binds the d2 labelled cAMP, thus the specific signal (i.e. energy transfer) is inversely proportional to the concentration of cAMP in the standard or sample.
(§3) Cells are counted washed and resuspended in assay buffer (AB; HBSS, 20 mM HEPES, 0.2% BSA; 2 mM IBMX).
Plate is pre-incubated 45 minutes at RT. Subsequently, 2.5 microliters of PGE2 (final conc. 6 nM) are transferred into the assay plate. Plate is incubated 30 minutes at RT.

PTGER4 (EP4) = PTGER4 (EP4) (Homo sapiens (Human), UniProt P35408); test: cell-based
EP2 = EP2 (Homo sapiens (Human), UniProt P43116); test: hEP2 cAMP assay (SF295 glioblastoma cells, HTRF cAMP); assay type: cell-based; conditions: antagonistic activity
From the text: as §1, §2, §3
Plate is pre-incubated 45 minutes at RT. […] Plate is incubated 30 minutes at RT.

EP2, sequence (P43116 whole entry): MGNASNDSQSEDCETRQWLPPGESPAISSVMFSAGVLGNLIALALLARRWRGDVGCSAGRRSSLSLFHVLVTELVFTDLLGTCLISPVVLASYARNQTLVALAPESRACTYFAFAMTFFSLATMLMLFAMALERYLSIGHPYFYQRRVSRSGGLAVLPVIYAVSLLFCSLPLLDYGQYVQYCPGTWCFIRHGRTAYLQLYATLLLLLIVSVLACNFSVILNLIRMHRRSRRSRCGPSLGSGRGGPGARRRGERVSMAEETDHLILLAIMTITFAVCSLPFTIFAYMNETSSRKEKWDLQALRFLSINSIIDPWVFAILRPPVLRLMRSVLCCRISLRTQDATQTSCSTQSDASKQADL
EP4, sequence (P35408 whole entry): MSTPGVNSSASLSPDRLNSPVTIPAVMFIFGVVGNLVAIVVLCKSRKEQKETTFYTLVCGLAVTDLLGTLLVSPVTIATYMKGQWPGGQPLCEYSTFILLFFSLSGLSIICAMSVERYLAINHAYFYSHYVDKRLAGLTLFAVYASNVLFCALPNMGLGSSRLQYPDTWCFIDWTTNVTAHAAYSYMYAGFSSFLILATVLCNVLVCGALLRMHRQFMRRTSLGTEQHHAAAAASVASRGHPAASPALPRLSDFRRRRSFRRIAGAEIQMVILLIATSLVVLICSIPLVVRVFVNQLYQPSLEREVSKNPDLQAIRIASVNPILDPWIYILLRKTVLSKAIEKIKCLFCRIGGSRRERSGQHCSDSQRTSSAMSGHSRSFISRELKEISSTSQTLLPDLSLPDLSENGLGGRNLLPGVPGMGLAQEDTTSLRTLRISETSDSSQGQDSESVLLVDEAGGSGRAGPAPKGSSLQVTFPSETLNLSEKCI
PTGER4 (EP4), sequence (P35408 whole entry): as above

SMILES | IC50 (EP4) [nM] | IC50 (PTGER4 (EP4)) [nM] | IC50 (EP2) [nM]
CCOc1cc(-c2cc(NCCc3ccc4ccccc4c3Cl)ncn2)sc1C(=O)O [Ex 90, 5-{6-[2-(1-Chloro-naphthalen-2-yl)-ethylamino]-pyrimidin-4-yl}-3-ethoxy-thiophene-2-carboxylic acid] | 55 | 26 | 378
CCSc1cc(-c2cc(NCCc3c(F)cc4ncccc4c3F)ncn2)ccc1C(=O)O [Ex 153] | 146 | 757 | 340
CCOc1cc(-c2cc(NCCc3ccc4sccc4c3)ncn2)ccc1C(C)C(=O)O (stereo not drawn) [Ex 161] | 130 | 199 | 524
CCOc1cc(-c2cc(NCCc3ccc4cc[nH]c4c3)ncn2)ccc1OCC(=O)O [Ex 194, (2-Ethoxy-4-{6-[2-(1H-indol-6-yl)-ethylamino]-pyrimidin-4-yl}-phenoxy)-acetic acid] | 212 | 325 | 295
CCOc1cc(-c2cc(NCCc3ccc4occc4c3)ncn2)ccc1CC(=O)O [Ex 311, {4-[6-(2-Benzofuran-5-yl-ethylamino)-pyrimidin-4-yl]-2-ethoxy-phenyl}-acetic acid] | 685 | 310 | 538
CCOc1cc(-c2cc(NCCc3ccc4c(c3)OCCC4)ncn2)ccc1CC(=O)O [Ex 332, {4-[6-(2-Chroman-7-yl-ethylamino)-pyrimidin-4-yl]-2-ethoxy-phenyl}-acetic acid] | 1510 | 415 | 12200
O=C(O)c1ccc(-c2cc(NCCc3ccc4c(c3)CCC4)ncn2)cc1OC1CCC1 [Ex 206, 2-Cyclobutoxy-4-[6-(2-indan-5-yl-ethylamino)-pyrimidin-4-yl]-benzoic acid] | 248 | 304 | 572
Fc1cc2ncccc2c(F)c1CCNc1cc(-c2ccc3ncccc3c2)ncn1 [Ex 123, [2-(5,7-Difluoro-quinolin-6-yl)-ethyl]-(6-quinolin-6-yl-pyrimidin-4-yl)-amine] | 97 | 353 | 588
CSc1cc(-c2cc(NCCc3ccc4ccsc4c3)ncn2)ccc1C(=O)O [Ex 176] | 185 | 179 | 293
CCOc1cc(-c2cc(NCCc3ccc4c(c3)OCCC4)ncn2)sc1C(=O)O [Ex 58, 5-[6-(2-Chroman-7-yl-ethylamino)-pyrimidin-4-yl]-3-ethoxy-thiophene-2-carboxylic acid] | 30 | 13 | 9390
CCOc1cc(-c2cc(NCCc3ccc4ccccc4c3N)ncn2)sc1C(=O)O [Ex 71, 5-{6-[2-(1-Amino-naphthalen-2-yl)-ethylamino]-pyrimidin-4-yl}-3-ethoxy-thiophene-2-carboxylic acid] | 39 | 24 | 301
O=C(O)c1ccc(-c2cc(NCCc3ccc4c(c3)OCC4)ncn2)cc1OC1CCC1 [Ex 295] | 568 | 603 | 520
O=C(O)c1ccc(-c2cc(NCCc3ccc4c(c3)CCCO4)ncn2)cc1OC1CCC1 [Ex 266, 4-[6-(2-Chroman-6-yl-ethylamino)-pyrimidin-4-yl]-2-cyclobutoxy-benzoic acid] | 428 | 444 | 537
CCOc1cc(-c2cc(NCCc3ccc4ccccc4c3C)ncn2)ccc1OCC(=O)O [Ex 166] | 165 | 49 | 297
CCOc1cc(-c2cc(NCCc3cc4c(cc3OC)CCCC4)ncn2)ccc1OCC(=O)O [Ex 143] | 128 | 22 | 787
Cc1csc2ccc(CCNc3cc(-c4ccc(C(=O)O)c(OC5CCC5)c4)ncn3)cc12 [Ex 306] | 654 | 610 | 274
CSc1cc(-c2cc(NCCc3ccc4c(c3)CCCO4)ncn2)ccc1C(=O)O [Ex 257, 4-[6-(2-Chroman-6-yl-ethylamino)-pyrimidin-4-yl]-2-methylsulfanyl-benzoic acid] | 389 | 417 | 282
